Assay results from patent publication EP0584256B1, “COMPOUNDS AND PHARMACEUTICAL COMPOSITIONS FOR DETECTING AND LOCALIZING TISSUES HAVING NEUROKININE 1 RECEPTORS” (MALLINCKRODT MEDICAL, INC., priority 1991, dated 1999).

Tests used:
[1] = test system: human meningioma membranes; test: Binding of [125I]BH-SP to human meningioma membranes; conditions: Figure 1
Protocol: (§1) Binding studies in vitro are carried out in a standardized system by studying the displacement of ^125I-Bolton Hunter substance P {[^125I]BH-SP} by the above-synthetized labelled peptides.

[2] = type: in vitro ADME, rat
From the text: A liver perfusion model is used as described by Docter et al. in Endocrinology 1990, 126, 451-459. It is a generally accepted fact in this art, that handling of bio-active substances by the isolated perfused rat liver according to this model has a very good predictable value for the appearance of metabolites of the used substance in the circulation of human beings. In short, in this model isolated livers are perfused in a recirculating system with Krebs-Ringer medium supplemented with 1% bovine serum albumin and 10 mM glucose. After 0.5 hr preperfusion, experiments are started by addition of the labelled substance P (5 µCi) to the medium. At regular time points medium samples are taken. Medium samples are analyzed by column chromatography, using Seppak^(R) C-18 columns.
The average results are presented in Figures 4-6, showing the disappearance of the total radioactivity ("tot. act.") and of the peptide-bound radioactivity ("protein") with concomitant appearance of non-peptide bound radioactivity in the circulating medium as a degradation product.
Figures 7-9 show the excretion of the tested labelled peptides into the bile.

[3] = test system: SP-receptors; test: Displacement of / binding of [125I]BH-SP, rat brain cortex membranes; conditions: membranes of the cortex of rat brains; Figure 1
Protocol: as §1

[4] = test system: SP-receptors; test: Displacement of / binding of [125I]BH-SP, human glioma membranes; conditions: Figure 1
Protocol: as §1

[^125I]BH-SP: ^125I-Bolton Hunter substance P, known radioligand from in vitro binding studies
specific binding to membranes [1]: not
liver metabolic clearance [2]: relatively fast
specific binding to membranes [3]: specifically binds
specific binding to membranes [4]: specifically binds
